{"source": "patent US20190298735A1", "about": "“TREATMENT AND PREVENTION OF CLOSTRIDIUM DIFFICILE COLITIS USING MISOPROSTOL” (Vanderbilt University, priority 2016, published 2019)", "key": {"NAP1/BI/027 strain M7404": {"test_system": "NAP1/BI/027 strain M7404", "assay": "Misoprostol in acute CDI mouse model (survival, FITC-dextran intestinal permeability, diarrhea)", "format": "in vivo, mice", "details": "for CDI severity: mice, M7404 spores, daily misoprostol IP vs vehicle"}, "C. difficile strain 630": {"test_system": "C. difficile strain 630", "assay": "Colonization levels of C. difficile in the cecum of infected mice", "format": "in vivo", "details": "strain 630, 96 hr post infection, misoprostol vs vehicle", "description": "FIG. 5. […] (A) Mice were infected by gavage with 10^6 spores of the NAP1/BI/027 strain […] and treated daily with the PGE analogue misoprostol (or vehicle) by intraperitoneal (IP) injection. n=5 per group. (B) To assess intestinal permeability mice were infected with […] of […] and given misoprostol 20 μg/mouse by IP injection 30 min before infection, 24 hr post-infection and at the time of FITC-dextran treatment. 2 d post infection mice were gavaged with FITC-dextran or vehicle control, then euthanized 4 hr later and concentrations of FITC-dextran in plasma were determined (*P<0.05). (C) Colonization levels of C. difficile strain 630 in the cecum for infected mice exposed to misoprostol or vehicle 96 hr post infection (*P<0.05)."}, "strain M7404": {"test_system": "strain M7404", "assay": "Misoprostol in indomethacin-exposed CDI mice", "format": "in vivo, Female C57BL/6 mice"}, "[1]": {"test_system": "human esophageal epithelial (HET-1A) cells", "details": "cited from earlier work"}, "esophageal ulcer": {"test_system": "esophageal ulcer", "details": "rats, cited from earlier work"}, "PGE2 EP receptors": {"test_system": "PGE2 EP receptors", "details": "cited from earlier work"}, "[2]": {"details": "human; cited from earlier work"}, "[3]": {"target": "T1, prostaglandin E2 receptor 4 (EP4) receptor (Mus musculus, UniProt P32240)", "T1 construct": "endogenous in cells; host or cells: mouse, in vivo (colon tissue); result quoted from Watanabe et al. 2015", "T1 sequence (P32240 whole entry)": "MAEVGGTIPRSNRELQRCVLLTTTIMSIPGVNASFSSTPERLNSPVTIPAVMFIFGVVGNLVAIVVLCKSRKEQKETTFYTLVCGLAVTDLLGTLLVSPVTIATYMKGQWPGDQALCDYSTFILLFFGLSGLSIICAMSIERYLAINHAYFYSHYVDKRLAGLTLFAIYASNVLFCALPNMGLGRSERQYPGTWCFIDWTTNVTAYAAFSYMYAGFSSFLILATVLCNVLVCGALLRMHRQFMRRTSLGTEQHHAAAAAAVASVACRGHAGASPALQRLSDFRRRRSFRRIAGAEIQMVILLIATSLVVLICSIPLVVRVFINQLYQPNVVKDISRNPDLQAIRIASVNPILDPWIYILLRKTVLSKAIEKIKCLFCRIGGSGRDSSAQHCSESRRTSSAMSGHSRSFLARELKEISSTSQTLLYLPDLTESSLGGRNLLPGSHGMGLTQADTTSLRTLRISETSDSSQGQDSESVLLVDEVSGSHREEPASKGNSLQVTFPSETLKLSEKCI", "details": "oral administration, mouse model; cited from earlier work"}, "[4]": {"target": "T1, prostaglandin E2 receptor 4 (EP4) receptor", "details": "another mouse model, oral administration; cited from earlier work"}, "[5]": {"details": "mice; cited from earlier work"}, "[6]": {"test_system": "NAP1 C. difficile strain M7404", "format": "in vivo, C57BL/6 mice", "details": "mice, NSAID given before or after infection, clinical NAP1/027 isolate; indomethacin 10 mg/kg gavage, ibuprofen 5 mg/kg in drinking water"}, "C. difficile [7]": {"test_system": "C. difficile", "assay": "Tissue PGE2 (ELISA) and histological colitis score in C. difficile infected mice treated with indomethacin", "format": "in vivo", "details": "for tissue damage and acute inflammation (colitis): blinded histological score: edema, neutrophilic inflammation, epithelial damage; for tissue PGE2 levels: indomethacin gavage once daily until day +4, ELISA", "description": "FIG. 3. […] (A) Mice were infected with C. difficile and treated with indomethacin by gavage once daily starting on the day of infection until mice were euthanized on day +4. Tissue PGE2 concentrations were measured by ELISA. n=5 mice per group. (B) Histological assessment of colitis was performed in a blinded fashion. The score incorporates edema, neutrophilic inflammation, and epithelial damage. (C and D) Tissue cytokine and chemokine concentrations were measured by ELISA. n=5 mice per group. *P<0.05."}, "C. difficile [8]": {"test_system": "C. difficile", "details": "C. difficile-infected mice, cited from earlier work"}}, "note": "Entries after “also recorded” stand apart in the source; their conditions may differ.", "data": [{"smiles": "CCCC[C@](C)(O)C/C=C/[C@H]1[C@H](O)CC(=O)[C@@H]1CCCCCCC(=O)OC", "note": "(racemic) [misoprostol, (11a, 13E)-(±)-11,16-dihydroxy-16-methyl-9-oxoprost-13-en-1-oic acid methyl ester]", "values": [{"measurement": "diarrhea", "setting": "NAP1/BI/027 strain M7404; infected mice, misoprostol vs vehicle/placebo", "value": "reduced diarrhea; also recorded: fared significantly better"}, {"measurement": "CDI severity", "setting": "NAP1/BI/027 strain M7404", "value": "reduced CDI severity"}, {"measurement": "CDI severity", "setting": "NAP1/BI/027 strain M7404; listed as Misoprostol", "value": "reduces CDI severity"}, {"measurement": "death / survival", "setting": "NAP1/BI/027 strain M7404; mouse, in vivo, ip", "value": "prevented death; also recorded: fared significantly better"}, {"measurement": "C. difficile colonization levels", "setting": "C. difficile strain 630", "value": "reduced C. difficile colonization levels"}, {"measurement": "CDI in indomethacin-exposed mice", "setting": "strain M7404; INDO 10 mg/kg days −2 and −1, 1×10^4 spores M7404, 20 mg misoprostol i.p. daily", "value": "improves CDI"}, {"measurement": "survival, Log-rank (Mantel-Cox) test", "setting": "strain M7404; mouse, in vivo, ip", "value": "not statistically significant"}, {"measurement": "VEGF expression", "setting": "[1]", "value": "stimulated VEGF expression"}, {"measurement": "increase of intracellular cAMP levels", "setting": "[1]", "value": 163, "unit": "fold"}, {"measurement": "phosphorylation of CREB", "setting": "[1]", "value": "induced phosphorylation of CREB"}, {"measurement": "CREB phosphorylation, VEGF expression and angiogenesis", "setting": "esophageal ulcer; esophageal ulcer", "value": "enhanced phosphorylation of CREB, stimulated VEGF expression and angiogenesis"}, {"measurement": "esophageal ulcer healing", "setting": "esophageal ulcer", "value": "accelerated esophageal ulcer healing"}, {"measurement": "binding to PGE2 EP receptors", "setting": "PGE2 EP receptors", "value": "binds all 4 of the PGE2 EP receptors"}, {"measurement": "protection of colonic mucosa against mucosal insults", "setting": "[2]", "value": "potently protects human colonic mucosa"}]}, {"smiles": "Cc1cccc([C@@H](C)[C@H](O)/C=C/[C@@H]2[C@@H]3[C@H](C[C@H]2O)O/C(=C\\CCCc2nn[nH]n2)C3(F)F)c1", "note": "[KAG-308]", "values": [{"measurement": "onset of dextran sulfate sodium-induced colitis and mucosal healing", "setting": "[3]", "value": "suppressed onset of dextran sulfate sodium-induced colitis and promoted mucosal healing"}, {"measurement": "colorectal carcinogenesis", "setting": "[4]", "value": "prevented colorectal carcinogenesis"}]}, {"smiles": "CCCCC[C@H](O)/C=C/[C@H]1[C@H](O)CC(=O)[C@@H]1C/C=C\\CCCC(=O)O", "note": "[PGE2, Prostaglandin E2]", "values": [{"measurement": "colitis induced by DSS", "setting": "[5]", "value": "significantly improved colitis"}]}, {"smiles": "Nc1ncnc2c1ncn2[C@@H]1O[C@@H]2COP(O)(=S)O[C@H]2[C@H]1O", "note": "(some centres unmarked) [Rp-cAMP]", "values": [{"measurement": "action on the effects of misoprostol (cAMP, CREB phosphorylation, VEGF expression)", "setting": "[1]", "value": "blocked"}]}, {"smiles": "Nc1ncnc2c1ncn2[C@@H]1O[C@@H]2COP(O)(=S)O[C@H]2[C@H]1O", "note": "(some centres unmarked) [Sp-cAMP]", "values": [{"measurement": "action on the effects of misoprostol (cAMP, CREB phosphorylation, VEGF expression)", "setting": "[1]", "value": "mimicked"}]}, {"smiles": "COc1ccc2c(c1)c(CC(=O)O)c(C)n2C(=O)c1ccc(Cl)cc1", "note": "[indomethacin]", "values": [{"measurement": "mortality in CDI", "setting": "[6]", "value": "higher mortality"}, {"measurement": "tissue damage and acute inflammation (colitis)", "setting": "C. difficile [7]", "value": "induced more tissue damage and acute inflammation"}, {"measurement": "tissue damage and acute inflammation (colitis)", "setting": "C. difficile [7]; listed as Indomethacin", "value": "worsens colitis"}, {"measurement": "tissue PGE2 levels", "setting": "C. difficile [7]", "value": "suppressed tissue PGE2 levels"}, {"measurement": "tissue PGE2 levels", "setting": "C. difficile [7]; listed as Indomethacin", "value": "inhibits PGE2 production"}]}, {"smiles": "CN[C@H](CC(C)C)C(=O)N[C@H]1C(=O)N[C@@H](CC(N)=O)C(=O)N[C@H]2C(=O)N[C@H]3C(=O)N[C@H](C(=O)N[C@H](C(=O)O)c4cc(O)cc(O)c4-c4cc3ccc4O)[C@H](O)c3ccc(c(Cl)c3)Oc3cc2cc(c3O[C@@H]2O[C@H](CO)[C@@H](O)[C@H](O)[C@H]2O[C@H]2C[C@](C)(N)[C@H](O)[C@H](C)O2)Oc2ccc(cc2Cl)[C@H]1O", "note": "[vancomycin]", "values": [{"measurement": "relapse of colitis after treatment", "setting": "C. difficile [8]; with increased colonization levels and toxin production", "value": "gradual return of colitis by day 16"}, {"measurement": "resolution of colitis", "setting": "C. difficile [8]", "value": "accelerates resolution of colitis"}]}]}
